From patent US12371430B2, “5-morpholin-4-yl-pyrazolo[4,3-b]pyridine derivatives” (Merck Patent GmbH, priority 2018, dated 2025) come the findings set out here.

Assay [1] concerns the target ATR/ATRIP (Homo sapiens (Human), UniProt Q13535). The assay is described as follows: ATR/ATRIP kinase assay (TR-FRET, p53 Ser15 phosphorylation). The conditions noted are these: 0.5 μM ATP, 50 nM p53. In kind it is biochemical. As to the method:
ATR/ATRIP Kinase Assay—Measurement of ATR/ATRIP Inhibition
The IC50 value was determined by an ATR/ATRIP enzymatic assay. The assay comprises two steps: the enzymatic reaction and the detection step. First, a mixture of ATR/ATRIP protein (Ataxia Telangiectasia and Rad3-related protein/ATR interacting protein), the compound in question at different concentrations, p53 as substrate protein and adenosine triphosphate (ATP) are incubated in assay buffer. ATR phosporylates p53 at Ser15 and other residues. The amount of phosphorylated p53 is then detected using specific antibodies and the TR-FRET assay technology.
In detail: The ATR/ATRIP enzymatic assay is performed as a TR-FRET-(HTRF™, Cisbio Bioassays) based 384-well assay. In a first step, purified human recombinant ATR/ATRIP (human ATR, full length, GenBank ID: NM_001184.3, and human ATRIP, full length, GenBank ID AF451323.1, co-expressed in a mammalian cell line) is incubated in assay buffer for 15 minutes at 22° C. with test compound at different concentrations or without test compound (as a negative control). The assay buffer contains 25 mM HEPES pH 8.0, 10 mM Mg(CH3COO)2, 1 mM MnCl2, 0.1% BSA, 0.01% Brij® 35, and 5 mM dithiothreitol (DTT). An Echo 555 (Labcyte) is used for dispensing of compound solutions. Then, in a second step, purified human recombinant cmyc-tagged p53 (human p53, full length, GenBank ID: BC003596, expressed in Sf21 insect cells) and ATP are added and the reaction mixture is incubated for 25-35 minutes, typically 25 minutes, at 22° C. The pharmacologically relevant assay volume is 5 μl. The final concentrations in the assay during incubation of the reaction mixture are 0.3-0.5 nM, typically 0.3 nM, ATR/ATRIP, 50 nM p53, and 0.5 μM ATP. The enzymatic reaction is stopped by the addition of EDTA. The generation of phosphorylated p53 as a result of the ATR mediated reaction in the presence of ATP is detected by using specific antibodies [labeled with the fluorophores europium (Eu) as donor and d2 as acceptor (Cisbio Bioassays)] enabling FRET. For this purpose, 2 μl of antibody-containing stop solution (12.5 mM HEPES pH 8.0, 125 mM EDTA, 30 mM sodium chloride, 300 mM potassium fluoride, 0.006% Tween-20, 0.005% Brij® 35, 0.21 nM anti-phospho-p53(Ser15)-Eu antibody, 15 nM anti-cmyc-d2 antibody) are added to the reaction mixture. Following signal development for 2 h the plates are analyzed in an EnVision (PerkinElmer) microplate reader using the TRF mode with laser excitation. Upon excitation of the donor europium at 340 nm the emitted fluorescence light of the acceptor d2 at 665 nm as well as from the donor Eu at 615 nm are measured. The amount of phosphorylated p53 is directly proportional to the ratio of the amounts of emitted light i.e. the ratio of the relative fluorescence units (rfu) at 665 nm and 615 nm. Data are processed employing the Genedata Screener software. In particular, IC50 values are determined in the usual manner by fitting a dose-response curve to the data points using nonlinear regression analysis. • IC50=half maximal inhibitory concentration • ATP=Adenosine triphosphate • TR-FRET=Time-Resolved Fluorescence Resonance Energy Transfer • HTRF®=Homogeneous Time Resolved Fluorescence • HEPES=2-(4-(2-Hydroxyethyl)-1-piperazinyl)-ethanesulfonic acid • Mg(CH3COO)2=Magnesium acetate • MnCl2=Manganese(II)-chloride • BSA=Bovine Serum Albumin • EDTA=Ethylendiamine Tetraacetate • TRF=Time Resolved Fluorescence pCHK1 Cellular Assay
In general terms: Time-resolved FRET reads energy transfer from a long-lived donor to a nearby acceptor.

Assay [2] concerns phosphorylation of Chk1 (Ser 345) in HT29 colon adenocarcinoma cells. The assay is described as follows: pCHK1 cellular assay. The conditions noted are these: Homo sapiens, HT-29, hydroxyurea 3 mM, 4 h. In kind it is cell-based. An excerpt: Chk1 kinase acts downstream of ATR and has a key role in DNA damage checkpoint control. Activation of Chk1 involves phosphorylation of Ser317 and Ser345 (regarded as the preferential target for phosphorylation/activation by ATR) and occurs in response to blocked DNA replication and certain forms of genotoxic stress. Phosphorylation at Ser 345 serves to localize Chk1 to the nucleus following checkpoint activation.
This assay measures a decrease in phosphorylation of Chk1 (Ser 345) in HT29 colon adenocarcinoma cells following treatment with compound and hydroxyurea (which promotes fork stalling because of dNTP depletion) and using an immunocytochemical procedure and high content imaging.
For the assay HT29 cells are plated in culture medium (DMEM high Glucose (no phenol red), 2 mM Glutamax, 1 mM Pyruvate, 10% FCS into Greiner 384 well plates, black, μclear #781090 (2500 cells/well/30 μl) and incubated for at least 20 hours at 37° C., 10% CO2 and 90% rH. Diluted test compounds (1 nM-30 μM final) and hydroxyurea (3 mM final) are added simultaneously and cells are incubated for 4 h at 37° C. After fixation/prmeabilisation with 100% MeOH (−20° C. cold) and permeabilisation with 0.2% Triton X-100 a complete immunocytochemical procedure is performed using a specific anti-pChk1 antibody (Cell Signaling, #2348BF) and fluorescently labelled secondary antibody (Alexa Fluor® 488 goat anti-rabbit F(ab′)2 fragment, Invitrogen A11070) and parallel nuclear staining for cell counting.
The nuclear localised pChk1 signal is detected on an ImageXpress Ultra confocal high content reader and reported as % positive cells (nuclei).

Structures are written as SMILES. A value given as a limit tells only on which side of the number the result lay.

Sequence of ATR/ATRIP (Q13535 whole entry): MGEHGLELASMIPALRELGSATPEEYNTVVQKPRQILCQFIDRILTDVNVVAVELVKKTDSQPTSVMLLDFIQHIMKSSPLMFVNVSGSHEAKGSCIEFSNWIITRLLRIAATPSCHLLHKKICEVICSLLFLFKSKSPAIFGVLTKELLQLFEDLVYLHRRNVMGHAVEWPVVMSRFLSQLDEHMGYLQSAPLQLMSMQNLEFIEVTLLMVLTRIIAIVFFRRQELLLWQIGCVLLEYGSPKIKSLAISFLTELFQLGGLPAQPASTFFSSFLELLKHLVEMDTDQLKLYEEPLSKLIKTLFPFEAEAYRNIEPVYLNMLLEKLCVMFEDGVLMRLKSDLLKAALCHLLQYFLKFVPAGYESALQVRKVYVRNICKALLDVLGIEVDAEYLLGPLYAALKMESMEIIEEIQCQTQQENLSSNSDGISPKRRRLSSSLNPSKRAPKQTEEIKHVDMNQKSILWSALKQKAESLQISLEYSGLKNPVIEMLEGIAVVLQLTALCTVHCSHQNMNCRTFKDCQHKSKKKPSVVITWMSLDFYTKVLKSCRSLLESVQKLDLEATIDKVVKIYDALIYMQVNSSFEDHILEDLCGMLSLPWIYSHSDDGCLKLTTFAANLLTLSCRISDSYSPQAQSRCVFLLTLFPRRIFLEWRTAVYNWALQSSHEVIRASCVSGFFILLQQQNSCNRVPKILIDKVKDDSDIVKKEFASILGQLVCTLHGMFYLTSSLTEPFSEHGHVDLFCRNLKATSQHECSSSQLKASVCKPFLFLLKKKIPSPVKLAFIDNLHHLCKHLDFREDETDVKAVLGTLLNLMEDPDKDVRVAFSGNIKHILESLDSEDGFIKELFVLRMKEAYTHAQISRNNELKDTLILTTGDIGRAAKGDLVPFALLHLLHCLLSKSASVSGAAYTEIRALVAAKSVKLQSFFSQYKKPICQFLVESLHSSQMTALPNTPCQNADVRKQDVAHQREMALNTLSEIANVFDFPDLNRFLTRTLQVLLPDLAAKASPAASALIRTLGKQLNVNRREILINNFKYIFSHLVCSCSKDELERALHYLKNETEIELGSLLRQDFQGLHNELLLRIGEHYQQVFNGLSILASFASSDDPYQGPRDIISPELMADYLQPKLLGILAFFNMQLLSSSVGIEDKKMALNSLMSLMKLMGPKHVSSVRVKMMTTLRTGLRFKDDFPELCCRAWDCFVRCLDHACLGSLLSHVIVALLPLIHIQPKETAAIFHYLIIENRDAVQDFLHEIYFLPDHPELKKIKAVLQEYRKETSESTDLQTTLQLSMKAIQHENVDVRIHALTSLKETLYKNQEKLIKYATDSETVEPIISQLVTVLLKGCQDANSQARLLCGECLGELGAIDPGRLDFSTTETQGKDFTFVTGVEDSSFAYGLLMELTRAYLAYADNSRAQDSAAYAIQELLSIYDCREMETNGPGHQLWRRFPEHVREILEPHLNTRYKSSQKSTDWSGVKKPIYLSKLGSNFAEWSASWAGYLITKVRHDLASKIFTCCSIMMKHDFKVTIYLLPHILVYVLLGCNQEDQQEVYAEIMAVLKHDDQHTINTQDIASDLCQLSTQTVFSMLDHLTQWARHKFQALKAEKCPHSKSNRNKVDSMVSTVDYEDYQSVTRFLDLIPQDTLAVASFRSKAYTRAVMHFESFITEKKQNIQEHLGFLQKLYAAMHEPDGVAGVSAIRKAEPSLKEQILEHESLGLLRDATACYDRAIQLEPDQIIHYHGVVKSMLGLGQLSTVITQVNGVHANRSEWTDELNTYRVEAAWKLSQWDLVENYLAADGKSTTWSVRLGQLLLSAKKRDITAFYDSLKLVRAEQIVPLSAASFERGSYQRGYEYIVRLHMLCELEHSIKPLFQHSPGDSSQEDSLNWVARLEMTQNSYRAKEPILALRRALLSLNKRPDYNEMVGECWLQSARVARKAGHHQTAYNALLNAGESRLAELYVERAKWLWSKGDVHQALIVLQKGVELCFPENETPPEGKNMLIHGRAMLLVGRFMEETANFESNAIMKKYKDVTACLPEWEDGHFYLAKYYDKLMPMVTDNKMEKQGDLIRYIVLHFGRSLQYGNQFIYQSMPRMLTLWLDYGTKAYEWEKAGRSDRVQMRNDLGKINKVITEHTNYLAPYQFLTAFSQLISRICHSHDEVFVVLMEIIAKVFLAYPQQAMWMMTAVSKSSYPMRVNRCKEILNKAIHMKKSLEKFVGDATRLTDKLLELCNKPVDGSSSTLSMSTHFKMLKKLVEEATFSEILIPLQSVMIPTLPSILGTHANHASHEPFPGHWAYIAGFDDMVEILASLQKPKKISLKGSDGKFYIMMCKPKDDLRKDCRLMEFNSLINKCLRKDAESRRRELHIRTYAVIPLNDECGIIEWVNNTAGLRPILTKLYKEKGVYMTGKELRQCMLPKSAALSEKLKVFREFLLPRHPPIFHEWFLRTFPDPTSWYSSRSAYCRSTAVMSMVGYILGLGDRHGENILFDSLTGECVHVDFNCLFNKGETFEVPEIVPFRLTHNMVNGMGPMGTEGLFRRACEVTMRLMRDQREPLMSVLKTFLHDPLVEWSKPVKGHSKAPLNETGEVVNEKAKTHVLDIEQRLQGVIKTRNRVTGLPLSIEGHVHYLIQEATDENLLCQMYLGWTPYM
Sequence of ATR/ATRIP (Q8WXE1 whole entry partner): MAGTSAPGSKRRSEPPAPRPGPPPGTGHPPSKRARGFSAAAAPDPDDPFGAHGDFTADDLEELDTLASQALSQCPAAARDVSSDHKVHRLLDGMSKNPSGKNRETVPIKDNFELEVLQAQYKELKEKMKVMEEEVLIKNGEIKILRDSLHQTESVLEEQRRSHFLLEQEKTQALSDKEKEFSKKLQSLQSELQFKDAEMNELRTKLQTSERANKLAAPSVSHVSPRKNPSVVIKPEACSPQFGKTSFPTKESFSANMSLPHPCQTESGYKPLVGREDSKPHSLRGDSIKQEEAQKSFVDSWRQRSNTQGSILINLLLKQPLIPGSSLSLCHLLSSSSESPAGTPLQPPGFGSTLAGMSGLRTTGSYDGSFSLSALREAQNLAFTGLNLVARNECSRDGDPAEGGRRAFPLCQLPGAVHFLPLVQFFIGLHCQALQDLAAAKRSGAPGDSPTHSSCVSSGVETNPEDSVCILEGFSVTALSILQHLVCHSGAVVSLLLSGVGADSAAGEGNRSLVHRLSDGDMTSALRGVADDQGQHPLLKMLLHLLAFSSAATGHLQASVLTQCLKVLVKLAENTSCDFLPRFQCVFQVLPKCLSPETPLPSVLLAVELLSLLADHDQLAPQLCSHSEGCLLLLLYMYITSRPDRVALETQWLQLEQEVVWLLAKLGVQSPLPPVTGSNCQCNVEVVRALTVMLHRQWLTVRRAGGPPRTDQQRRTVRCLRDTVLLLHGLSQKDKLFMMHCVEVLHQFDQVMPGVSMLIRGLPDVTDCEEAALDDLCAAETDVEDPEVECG

`C[C@@H]1COCCN1c1cc(-c2ccc(CO)cc2)c2c(n1)c(-c1cc[nH]n1)nn2C` [Compound 52, (4-{1-Methyl-5-[(3R)-3-methylmorpholin-4-yl]-3-(1H-pyrazol-3-yl)-1H-pyrazolo[4,3-b]pyridin-7-yl}phenyl)methanol]: the IC50 (usually the point on the concentration scale where inhibition reaches its midpoint) in assay [1] is 1.4 nM; in assay [2], 10 to 100 nM.
Take `C[C@@H]1COCCN1c1ccc2c(n1)c(-c1cc[nH]n1)nn2-c1cccc(C#N)c1` [Compound 53, 3-[5-((3R)-3-Methyl-morpholin-4-yl)-3-(1H-pyrazol-3-yl)-1H-pyrazolo[4,3-b]pyridin-1-yl]-benzonitrile]: the IC50 is 58 nM in assay [1] and 1000 to 10000 nM in assay [2].
In the same order, the values of `C[C@@H]1COCCN1c1ccc2[nH]nc(-c3cc[nH]n3)c2n1` [Compound 56, (3R)-3-Methyl-4-[3-(1H-pyrazol-3-yl)-1H-pyrazolo[4,3-b]pyridin-5-yl]morpholine] are 25 nM and 1000 to 10000 nM.
In the same order, the values of `C[C@@H]1COCCN1c1ccc2c(n1)c(-c1cc[nH]n1)nn2Cc1cccc(S(C)(=O)=O)c1` [Compound 57, (3R)-4-{1-[(3-Methanesulfonylphenyl)methyl]-3-(1H-pyrazol-3-yl)-1H-pyrazolo[4,3-b]pyridin-5-yl}-3-methylmorpholine] are 150 nM and 1000 to 10000 nM.
For `C[C@@H]1COCCN1c1cc(-c2ccccn2)c2c(n1)c(-c1cc[nH]n1)nn2C` [Compound 58, (3R)-3-Methyl-4-[1-methyl-3-(1H-pyrazol-3-yl)-7-(pyridin-2-yl)-1H-pyrazolo[4,3-b]pyridin-5-yl]morpholine], in that order: 10 nM and 100 to 1000 nM.
Consider `C[C@@H]1COCCN1c1ccc2c(n1)c(-c1ccn[nH]1)nn2Cc1ccccc1` [Compound 59, (3R)-4-[1-Benzyl-3-(1H-pyrazol-5-yl)-1H-pyrazolo[4,3-b]pyridin-5-yl]-3-methylmorpholine], for which the IC50 in assay [1] was 21 nM; in assay [2] it was 1000 to 10000 nM.
In the same order, the values of `C[C@@H]1COCCN1c1ccc2c(n1)c(-c1cc[nH]n1)nn2-c1ccc(C#N)cc1` [Compound 60, 4-[5-[(3R)-3-Methylmorpholin-4-yl]-3-(1H-pyrazol-3-yl)-1H-pyrazolo[4,3-b]pyridin-1-yl]benzonitrile] are 32 nM and 1000 to 10000 nM.
For `Cc1cccnc1-c1cc(N2CCOC[C@H]2C)nc2c(-c3cc[nH]n3)nn(C)c12` [Compound 62, (3R)-3-Methyl-4-[1-methyl-7-(3-methylpyridin-2-yl)-3-(1H-pyrazol-3-yl)-1H-pyrazolo[4,3-b]pyridin-5-yl]morpholine], the figures for the IC50 in assay [1] and in assay [2] were 22 nM and 1000 to 10000 nM, respectively.
For `C[C@@H]1COCCN1c1ccc2c(n1)c(-c1cc[nH]n1)nn2CC1CC1` [Compound 63, (3R)-4-[1-(Cyclopropylmethyl)-3-(1H-pyrazol-3-yl)-1H-pyrazolo[4,3-b]pyridin-5-yl]-3-methylmorpholine], in that order: 27 nM and 100 to 1000 nM.
Regarding `C[C@@H]1COCCN1c1ccc2c(n1)c(-c1cc[nH]n1)nn2CCc1ccccc1` [Compound 64, 5-((R)-3-Methyl-morpholin-4-yl)-1-phenethyl-3-(1H-pyrazol-3-yl)-1H-pyrazolo[4,3-b]pyridine], the IC50 in assay [1] is 51 nM; in assay [2] it was 1000 to 10000 nM.
For `C[C@@H]1COCCN1c1cc(-c2ccc(C(F)(F)F)nc2)c2c(n1)c(-c1cc[nH]n1)nn2C` [Compound 65, (3R)-3-Methyl-4-[1-methyl-3-(1H-pyrazol-3-yl)-7-[6-(trifluoro-methyl)pyridin-3-yl]-1H-pyrazolo[4,3-b]pyridin-5-yl]morpholine], in that order: 5.8 nM and 100 to 1000 nM.
As for `C[C@@H]1COCCN1c1cc(-c2cccnc2C(F)(F)F)c2c(n1)c(-c1cc[nH]n1)nn2C` [Compound 66, (3R)-3-Methyl-4-[1-methyl-3-(1H-pyrazol-3-yl)-7-[2-(trifluoro-methyl)pyridin-3-yl]-1H-pyrazolo[4,3-b]pyridin-5-yl]morpholine], the results for the IC50 in assay [1] and in assay [2] were 1.9 nM and < 10 nM, respectively.
For `CC(C)n1nc(-c2cc[nH]n2)c2nc(N3CCOC[C@H]3C)ccc21` [Compound 73, (3R)-3-Methyl-4-[1-(propan-2-yl)-3-(1H-pyrazol-3-yl)-1H-pyrazolo[4,3-b]pyridin-5-yl]morpholine], in that order: 28 nM and 100 to 1000 nM.
Regarding `Cc1ccc(S(C)(=O)=O)cc1-c1cc(N2CCOC[C@H]2C)nc2c(-c3ccn[nH]3)nn(C)c12` [Compound 75, (3R)-4-[7-(5-Methanesulfonyl-2-methylphenyl)-1-methyl-3-(1H-pyrazol-5-yl)-1H-pyrazolo[4,3-b]pyridin-5-yl]-3-methylmorpholine], the results for the concentration for half-maximal inhibition (IC50) in assay [1] and in assay [2] were 21 nM and 100 to 1000 nM, respectively.
For the compound `C[C@@H]1COCCN1c1cc(-c2cccc(S(C)(=O)=O)c2)c2c(n1)c(-c1ccn[nH]1)nn2C` [Compound 76, (3R)-4-[7-(3-Methanesulfonylphenyl)-1-methyl-3-(1H-pyrazol-5-yl)-1H-pyrazolo[4,3-b]pyridin-5-yl]-3-methylmorpholine], the IC50 in assay [1] was 28 nM; in assay [2] it was 100 to 1000 nM.
On to `C[C@@H]1COCCN1c1ccc2c(n1)c(-c1cc[nH]n1)nn2CCc1ccncc1` [Compound 77, (3R)-3-Methyl-4-[3-(1H-pyrazol-3-yl)-1-[2-(pyridin-4-yl)ethyl]-1H-pyrazolo[4,3-b]pyridin-5-yl]morpholine], for which the values for the IC50 in assay [1] and in assay [2] were 58 nM and 1000 to 10000 nM, respectively.
For the compound `C[C@@H]1COCCN1c1cc(C2=CCS(=O)(=O)CC2)c2c(n1)c(-c1ccn[nH]1)nn2C` [Compound 81, 4-[1-Methyl-5-[(3R)-3-methylmorpholin-4-yl]-3-(1H-pyrazol-5-yl)-1H-pyrazolo[4,3-b]pyridin-7-yl]-3,6-dihydro-2H-1lambda6-thiopyran-1,1-dione], the half-inhibitory concentration (IC50) in assay [1] is 3 nM; in assay [2], 100 to 1000 nM.
With `C[C@@H]1COCCN1c1ccc2c(n1)c(-c1cc[nH]n1)nn2CC(C)(C)O` [Compound 85, 2-Methyl-1-{5-[(3R)-3-methylmorpholin-4-yl]-3-(1H-pyrazol-3-yl)-1H-pyrazolo[4,3-b]pyridin-1-yl}propan-2-ol], the 50% inhibitory concentration (IC50) was 21 nM in assay [1] and 1000 to 10000 nM in assay [2].
`C[C@@H]1COCCN1c1ccc2c(n1)c(-c1cc[nH]n1)nn2C(C)(C)CO` [Compound 86, 2-Methyl-2-{5-[(3R)-3-methylmorpholin-4-yl]-3-(1H-pyrazol-3-yl)-1H-pyrazolo[4,3-b]pyridin-1-yl}propan-1-ol]: the figures for the IC50 in assay [1] and in assay [2] were 24 nM and 1000 to 10000 nM, respectively.
